“And” between values parts separate entries of the source, which are not always exact repeats. Identical values can stand only once.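 1) Cells in 96-well plates. 2) Compound, 48 h, 5 concentrations. 3) Linear interpolation between surrounding doses. 4) Unreached endpoint = highest concentration. Here, GI50 denotes the concentration required for 50% inhibition of growth. TGI marks complete inhibition of growth.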
Key:
Assay in all cases: NCI anticancer screen, dose series, 48 h
[1] = test system: HL-60(TB) leukemia
[2] = test system: TK-10 renal
[3] = test system: SK-OV-3 ovarian
[4] = test system: NCI-H226 lung
[5] = test system: SF-268 CNS
[6] = test system: PC-3 prostate
[7] = test system: LOX IMVI melanoma
[8] = test system: 786-0 renal
[9] = test system: HS 578T breast
[10] = test system: HT29 colon
[11] = test system: HOP-92 NSCLC
[12] = test system: MALME-3M melanoma
[13] = test system: A498 renal
[14] = test system: SK-MEL-28 melanoma
[15] = test system: NCI-H460 lung
[16] = test system: SW-620 colon
[17] = test system: SK-MEL-5 melanoma
[18] = test system: SNB-19 CNS
[19] = test system: SF-295 CNS
[20] = test system: T-47D breast
[21] = test system: UO-31 renal
[22] = test system: UACC-257 melanoma
[23] = test system: HOP-62 NSCLC
[24] = test system: DU-145 prostate
[25] = test system: HCT-15 colon
[26] = test system: RPMI-8226 leukemia
[27] = test system: SN12C renal
[28] = test system: MCF7 breast
[29] = test system: UACC-62 melanoma
[30] = test system: NCI/ADR-RES ovarian
[31] = test system: U251 CNS
[32] = test system: OVCAR-5 ovarian
[33] = test system: SNB-75 CNS
[34] = test system: M14 melanoma
[35] = test system: IGROV1 ovarian
[36] = test system: MOLT-4 leukemia
[37] = test system: CAKI-1 renal
[38] = test system: SR leukemia
[39] = test system: HCT-116 colon
[40] = test system: MDA-MB-231 breast
[41] = test system: ACHN renal
[42] = test system: NCI-H23 lung
[43] = test system: CCRF-CEM leukemia
[44] = test system: SF-539 CNS
[45] = test system: MDA-MB-435
[46] = test system: OVCAR-8 ovarian
[47] = test system: OVCAR-4 ovarian
[48] = test system: RXF 393 renal
[49] = test system: A549 NSCLC
[50] = test system: HCC-2998 colon
[51] = test system: SK-MEL-2 melanoma
[52] = test system: BT-549 breast
[53] = test system: COLO 205 colon
[54] = test system: KM12 colon
[55] = test system: MDA-N
[56] = test system: OVCAR-3 ovarian
[57] = test system: K-562 leukemia
[58] = test system: EKVX NSCLC

In the case of `CCN(CC)CCNc1n[n+]([O-])c2cc([N+](=O)[O-])ccc2[n+]1[O-]`, the GI50 [1] is reported as 140 nM and 69.1 nM and 17.3 nM, the TGI [1] is reported as 381 nM and 278 nM and 88.2 nM and the GI50 [2] is reported as 2800 nM and 1420 nM and 1210 nM. The TGI [2] was 14700 nM and 8940 nM and 5880 nM, the TGI [3] was 4330 nM and 3790 nM and 3860 nM and the TGI [4] was 8820 nM and 7740 nM and 7800 nM. For the same compound, the TGI [5] was 8560 nM and 4920 nM and 5230 nM, the GI50 [6] was 1090 nM and 351 nM and 360 nM and the TGI [6] was 9400 nM and 4920 nM and 4590 nM. For the same compound, the TGI [7] was 2060 nM and 1960 nM and 1830 nM, the GI50 [8] was 462 nM and 239 nM and 200 nM and the TGI [8] was 3100 nM and 1630 nM and 1680 nM. For the same compound, the TGI [9] was 54200 nM, the TGI [10] was 2410 nM and 2220 nM and 1710 nM and the GI50 [11] was 163 nM and 297 nM and 449 nM. For the same compound, the TGI [11] was 1930 nM and 2530 nM and 2280 nM, the GI50 [12] was 571 nM and 306 nM and 144 nM and the TGI [12] was 1850 nM and 1380 nM and 1150 nM. For the same compound, the TGI [13] was 7990 nM and 4690 nM and 6230 nM, the TGI [14] was 22400 nM and 22800 nM and 14500 nM and the GI50 [15] was 264 nM and 35.3 nM and 93.9 nM. For the same compound, the TGI [15] was 1630 nM and 1160 nM and 1280 nM, the GI50 [16] was 737 nM and 304 nM and 238 nM and the TGI [16] was 3140 nM and 2450 nM and 2330 nM. For the same compound, the TGI [17] was 2010 nM and 1560 nM and 1700 nM, the TGI [18] was 6340 nM and 6430 nM and 5580 nM and the GI50 [19] was 253 nM and 447 nM and 186 nM. For the same compound, the TGI [19] was 1950 nM and 3080 nM and 2640 nM, the GI50 [20] was 1340 nM and 381 nM and 779 nM and the TGI [20] was 3220 nM. For the same compound, the TGI [21] was 15300 nM and 10800 nM and 10900 nM, the GI50 [22] was 1690 nM and 825 nM and 1070 nM and the TGI [22] was 4140 nM and 3080 nM and 2430 nM. For the same compound, the TGI [23] was 2200 nM and 1200 nM and 1540 nM, the GI50 [24] was 1200 nM and 630 nM and 578 nM and the TGI [24] was 6150 nM and 3570 nM and 3160 nM. For the same compound, the GI50 [25] was 870 nM and 287 nM and 273 nM, the TGI [25] was 5120 nM and 3160 nM and 2740 nM and the GI50 [26] was 270 nM and 285 nM and 122 nM. The TGI [26] was 1770 nM and 1720 nM and 1020 nM, the GI50 [27] was 675 nM and 249 nM and 255 nM and the TGI [27] was 2970 nM and 2330 nM and 2580 nM. For the same compound, the GI50 [28] was 274 nM and 110 nM and 136 nM, the TGI [28] was 1910 nM and 2170 nM and 1990 nM and the GI50 [29] was 532 nM and 309 nM and 244 nM. The TGI [29] was 2110 nM and 1560 nM and 1500 nM, the TGI [30] was 4740 nM and 5680 nM and 5600 nM and the TGI [31] was 3100 nM and 2730 nM and 2780 nM. For the same compound, the TGI [32] was 4450 nM and 3440 nM and 4330 nM, the GI50 [33] was 2010 nM and 1160 nM and 905 nM and the TGI [33] was 14500 nM and 14300 nM and 10000 nM. For the same compound, the TGI [34] was 2170 nM and 2630 nM and 2020 nM, the TGI [35] was 1830 nM and 999 nM and 897 nM and the GI50 [36] was 83.3 nM and 38.3 nM and 33.9 nM. The TGI [36] was 292 nM and 198 nM and 176 nM, the TGI [37] was 1790 nM and 2700 nM and 1970 nM and the GI50 [38] was 398 nM and 188 nM and 123 nM. For the same compound, the TGI [38] was 1750 nM and 958 nM and 754 nM, the TGI [39] was 2790 nM and 2390 nM and 2300 nM and the GI50 [40] was 1760 nM and 425 nM and 975 nM. The TGI [40] was 6330 nM and 3150 nM and 4260 nM, the GI50 [41] was 401 nM and 212 nM and 187 nM and the TGI [41] was 3930 nM and 2060 nM and 1920 nM. The GI50 [42] was 117 nM and 275 nM and 146 nM, the TGI [42] was 1550 nM and 1580 nM and 1940 nM and the GI50 [43] was 263 nM and 111 nM and 138 nM. The TGI [43] was 1100 nM and 841 nM and 999 nM, the GI50 [44] was 809 nM and 402 nM and 355 nM and the TGI [44] was 2570 nM and 1360 nM and 1380 nM. For the same compound, the TGI [45] was 2710 nM and 2370 nM and 2290 nM, the TGI [46] was 1990 nM and 1700 nM and 1530 nM and the TGI [47] was 3780 nM and 5620 nM and 6490 nM. The TGI [48] was 5140 nM and 4280 nM and 3030 nM, the TGI [49] was 3110 nM and 3080 nM and 2480 nM and the GI50 [50] was 206 nM and 287 nM and 120 nM. The TGI [50] was 1530 nM and 2010 nM and 570 nM, the GI50 [51] was 1390 nM and 639 nM and 575 nM and the TGI [51] was 3000 nM and 2020 nM and 2880 nM. For the same compound, the TGI [52] was 8850 nM and 8270 nM and 3640 nM, the TGI [53] was 2500 nM and 1740 nM and 2120 nM and the TGI [54] was 2720 nM and 2990 nM and 2410 nM. For the same compound, the TGI [55] was 2480 nM and 1650 nM and 1200 nM, the TGI [56] was 3150 nM and 3020 nM and 3730 nM and the GI50 [57] was 296 nM and 199 nM and 124 nM. For the same compound, the TGI [57] was 1230 nM and 1280 nM and 926 nM and the TGI [58] was 8380 nM and 5780 nM and 5300 nM.

Reference: PubChem BioAssay (NCI)
